# Tests used:
# [1] = test system: patients with heart failure and reduced ejection fraction; format: in vivo
# Protocol: The study was event-driven and was ended after approximately 1590 cardiovascular deaths. The overall type I error was 0.05 for 2-sided testing across primary and secondary endpoints with control for multiplicity testing. A single interim efficacy analysis was conducted after approximately two-thirds of the targeted number of cardiovascular deaths accrued with a one-sided alpha of 0.0005. Given the negligible impact of this interim on the final alpha, the full 0.05 was used in the final analysis consistent with the Haybittle-Peto approach. […] The mean differences in the KCCQ TSS change from baseline to Week 24 were estimated using a mixed model stratified by randomization setting (inpatient and outpatient) containing baseline TSS value, region, baseline eGFR, scheduled visit, treatment group, and the interaction of treatment group with scheduled visit. A joint omnibus F-test was used to test the treatment effect for the KCCQ TSS. An overall pooled estimate for the KCCQ TSS treatment difference to placebo were conducted using a likelihood based approach. The prespecified safety analyses included: serious adverse events; adverse events associated with discontinuation of study treatment; “adverse events of interest” i.e., ventricular arrhythmias requiring treatment and positively adjudicated major cardiac ischemic events (including myocardial infarction, hospitalization for unstable angina, coronary revascularization). […] All analyses were performed with the use of SAS software, version 9.4 (SAS Institute).
# Excluding the discontinuations due to death, the study drug was stopped in 847 patients (20.6%) receiving omecamtiv mecarbil and 897 patients (21.9%) receiving placebo with 371 (9.0%) in the omecamtiv mecarbil group and 382 (9.3%) receiving placebo discontinuing due to an adverse event. Patients receiving omecamtiv mecarbil had no change in potassium or creatinine concentrations during the course of the trial compared to placebo. Patients receiving omecamtiv mecarbil had increased median concentrations of high sensitivity troponin-I from baseline of 0.004 ng/mL (lower limit of quantification, 0.010 ng/mL) compared to placebo at week 24. […] Ventricular arrhythmias were similar in patients receiving omecamtiv mecarbil compared to placebo (Table 3).
# Continuous variables were summarized as means±standard deviations (SD) or medians and first and third quartiles (Q1, Q3), as appropriate. Categorical variables were summarized as counts and percentages. […] The change from baseline on NT-proBNP analysis included all participants who underwent randomization. The difference column is the exponentiated change from baseline on the log scale using a mixed model containing the log baseline value, region, baseline eGFR, scheduled visit, treatment group and interaction of treatment with scheduled visit.
# Table 4 summarizes the adverse events reported in 1% or more of patients.
# [2] = Pharmacokinetics in patients with hepatic impairment; format: in vivo, human; conditions: single dose 25 mg; mild (Child-Pugh A) or moderate (Child-Pugh B) hepatic impairment; result in words
# Protocol: The pharmacokinetics of a single dose of OM 25 mg were evaluated in patients with mild (Child-Pugh A) or moderate (Child-Pugh B) hepatic impairment. The pharmacokinetics (Cmax and AUC) of OM in patients with mild or moderate hepatic impairment were similar to those in patients with normal hepatic function.
# CYP2C8 = target: T1, CYP2C8 (Homo sapiens, UniProt P10632); test: In vitro inhibition by OM; format: in vitro ADME; conditions: result in words
# T1 sequence (P10632 1-490): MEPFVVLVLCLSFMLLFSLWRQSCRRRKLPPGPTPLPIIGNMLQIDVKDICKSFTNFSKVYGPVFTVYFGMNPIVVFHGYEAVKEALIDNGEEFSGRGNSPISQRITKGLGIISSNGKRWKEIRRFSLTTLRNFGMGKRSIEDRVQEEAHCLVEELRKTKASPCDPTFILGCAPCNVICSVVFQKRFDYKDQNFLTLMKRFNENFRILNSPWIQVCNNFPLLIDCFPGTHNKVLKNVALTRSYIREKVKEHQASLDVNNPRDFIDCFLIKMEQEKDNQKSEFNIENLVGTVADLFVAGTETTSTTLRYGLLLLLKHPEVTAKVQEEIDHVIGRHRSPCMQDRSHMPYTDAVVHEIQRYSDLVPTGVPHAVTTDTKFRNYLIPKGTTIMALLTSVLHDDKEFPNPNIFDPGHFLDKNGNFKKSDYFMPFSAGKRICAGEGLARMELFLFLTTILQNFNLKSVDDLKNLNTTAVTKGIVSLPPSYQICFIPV
# [3] = Drug interactions: change in OM pharmacokinetics in the presence of co-administered drugs; format: in vivo, human
# [4] = treatment-emergent serious adverse event, preferred term, N = 4110
# [5] = CYP2D6 genotype: PM (N = 8) versus EM (N = 16)
# [6] = with P-gp inhibitor amiodarone 600 mg SD, OM 50 mg SD, vs OM alone
# [7] = with moderate CYP3A inhibitor diltiazem 240 mg QD × 8 days, OM 10 mg SD, vs OM alone
# [8] = with pH modifying agent omeprazole 40 mg QD × 6 days, OM 50 mg SD, vs OM alone
# [9] = with strong CYP3A and P-gp inhibitor ketoconazole 200 mg BID × 8 days, OM 10 mg SD, vs OM alone
structure (smiles),measurement,setting,value
COC(=O)N1CCN(Cc2cccc(NC(=O)Nc3ccc(C)nc3)c2F)CC1 [omecamtiv mecarbil],"Acute kidney injury, %","[1]; human, in vivo",(3.1) %
same,"Acute myocardial infarction, %","[1]; human, in vivo",(1.7) %
same,"Adjudicated major cardiac ischemic events, no.","[1]; human, in vivo",200 no.
same,"Adjudicated major cardiac ischemic events, relative risk","[1]; human, in vivo",1.06
same,"Angina pectoris, %","[1]; human, in vivo",(1.0) %
same,"Angina unstable, %","[1]; human, in vivo",(1.5) %
same,"Atrial fibrillation, %","[1]; human, in vivo",(2.3) %
same,"Cardiac arrest, %","[1]; human, in vivo",(1.2) %
same,"Cardiac failure acute, %","[1]; human, in vivo",(5.2) %
same,"Cardiac failure chronic, %","[1]; human, in vivo",(3.8) %
same,"Cardiac failure congestive, %","[1]; human, in vivo",(3.6) %
same,"Cardiac failure, %","[1]; human, in vivo",(24.0) %
same,"Cardiogenic shock, %","[1]; human, in vivo",(1.8) %
same,"Chronic kidney disease, %","[1]; human, in vivo",(0.9) %
same,"Chronic obstructive pulmonary disease, %","[1]; human, in vivo",(1.5) %
same,"Coronary revascularization (adjudicated), %","[1]; human, in vivo",(2.8) %
same,"Coronary revascularization (adjudicated), no.","[1]; human, in vivo",115 no.
same,"Drug discontinuation due to an adverse event, no.","[1]; human, in vivo",371 no.
same,"Drug discontinuation due to an adverse event, relative risk","[1]; human, in vivo",0.97
same,"Hospitalized for unstable angina (adjudicated), %","[1]; human, in vivo",(0.6) %
same,"Hospitalized for unstable angina (adjudicated), no.","[1]; human, in vivo",25 no.
same,"Hypotension, %","[1]; human, in vivo",(1.2) %
same,"Myocardial infarction (adjudicated major cardiac ischemic event), no.","[1]; human, in vivo",122 no.
same,"Myocardial infarction, %","[1]; human, in vivo",(0.9) %
same,"Pneumonia, %","[1]; human, in vivo",(4.2) %
same,"Renal failure, %","[1]; human, in vivo",(0.6) %
same,"Renal impairment, %","[1]; human, in vivo",(0.6) %
same,"Respiratory tract infection, %","[1]; human, in vivo",(0.4) %
same,"Sepsis, %","[1]; human, in vivo",(1.2) %
same,"Septic shock, %","[1]; human, in vivo",(0.9) %
same,"Serious adverse events (subjects reporting treatment-emergent serious adverse events), %","[1]; human, in vivo",(57.7) %
same,"Serious adverse events (subjects reporting treatment-emergent serious adverse events), no.","[1]; human, in vivo",2373 no.
same,"Serious adverse events, relative risk","[1]; human, in vivo",0.97
same,"Serious adverse ventricular arrhythmia requiring treatment, %","[1]; human, in vivo",(2.9) %
same,"Serious adverse ventricular arrhythmia requiring treatment, no.","[1]; human, in vivo",119 no.
same,"Serious adverse ventricular arrhythmia requiring treatment, relative risk","[1]; human, in vivo",0.93
same,"Stroke, %","[1]; human, in vivo",(1.8) %
same,"Stroke, no.","[1]; human, in vivo",76 no.
same,"Stroke, relative risk","[1]; human, in vivo",0.68
same,"Study drug stopped, % of patients","[1]; human, in vivo",20.6%
same,"Study drug stopped, no. of patients","[1]; human, in vivo",847 no.
same,"Syncope, %","[1]; human, in vivo",(1.0) %
same,"Torsade de pointes/QT prolongation (narrow SMQ), %","[1]; human, in vivo",(4.3) %
same,"Torsade de pointes/QT prolongation (narrow SMQ), no.","[1]; human, in vivo",176 no.
same,"Torsade de pointes/QT prolongation (narrow SMQ), relative risk","[1]; human, in vivo",0.90
same,"Ventricular fibrillation, %","[1]; human, in vivo",(0.7) %
same,"Ventricular tachyarrhythmias (narrow SMQ), %","[1]; human, in vivo",(7.1) %
same,"Ventricular tachyarrhythmias (narrow SMQ), no.","[1]; human, in vivo",290 no.
same,"Ventricular tachyarrhythmias (narrow SMQ), relative risk","[1]; human, in vivo",0.95
same,"Ventricular tachycardia, %","[1]; human, in vivo",(2.6) %
same,"lschaemic stroke, %","[1]; human, in vivo",(0.9) %
same,"Death, %",[1]; [4],(1.6) %
same,"Sudden cardiac death, %",[1]; [4],(0.7) %
same,"Sudden death, %",[1]; [4],(1.3) %
same,Pharmacokinetics (Cmax and AUC) versus normal hepatic function,[2],similar
same,Inhibition of CYP2C8,CYP2C8,inhibitor
same,% Change of OM AUC (↑ = increase),[3]; [5],↑30%
same,% Change of OM Cmax (↓ = decrease),[3]; [5],↓18%
same,Mean Ratio of OM AUC (90% CI),[3]; [5],1.30 (0.93-1.82)
same,Mean Ratio of OM Cmax (90% CI),[3]; [5],0.82 (0.63-1.07)
same,% Change of OM AUC (↑ = increase),[3]; [6],↑ 21%
same,Mean Ratio of OM AUC (90% CI),[3]; [6],1.21 (1.08-1.36)
same,Mean Ratio of OM Cmax (90% CI),[3]; [6],1.08 (0.96-1.22)
same,% Change of OM Cmax (↓ = decrease),[3]; [7],↓21%
same,Mean Ratio of OM AUC (90% CI),[3]; [7],1.08 (0.97-1.22)
same,Mean Ratio of OM Cmax (90% CI),[3]; [7],0.79 (0.60-1.04)
same,Mean Ratio of OM AUC (90% CI),[3]; [8],0.95 (0.82-1.09)
same,Mean Ratio of OM Cmax (90% CI),[3]; [8],1.01 (0.95-1.07)
same,% Change of OM AUC (↑ = increase),[3]; [9],↑51%
same,Mean Ratio of OM AUC (90% CI),[3]; [9],1.51 (1.20-1.91)
same,Mean Ratio of OM Cmax (90% CI),[3]; [9],1.03 (0.76-1.40)

# — patent US12194039B2, “Methods of treating heart failure by administering omecamtiv mecarbil” (Cytokinetics, Inc., priority 2020, dated 2025)
